{"source": "paper PMC4774911", "about": "“Biochemical Screening of Five Protein Kinases from Plasmodium falciparum against 14,000 Cell-Active Compounds” (PLoS ONE, 2016)", "assay_in_all_cases": "biochemical", "key": {"TYK2": {"target": "TYK2 (Homo sapiens, UniProt P29597)", "sequence (P29597 whole entry)": "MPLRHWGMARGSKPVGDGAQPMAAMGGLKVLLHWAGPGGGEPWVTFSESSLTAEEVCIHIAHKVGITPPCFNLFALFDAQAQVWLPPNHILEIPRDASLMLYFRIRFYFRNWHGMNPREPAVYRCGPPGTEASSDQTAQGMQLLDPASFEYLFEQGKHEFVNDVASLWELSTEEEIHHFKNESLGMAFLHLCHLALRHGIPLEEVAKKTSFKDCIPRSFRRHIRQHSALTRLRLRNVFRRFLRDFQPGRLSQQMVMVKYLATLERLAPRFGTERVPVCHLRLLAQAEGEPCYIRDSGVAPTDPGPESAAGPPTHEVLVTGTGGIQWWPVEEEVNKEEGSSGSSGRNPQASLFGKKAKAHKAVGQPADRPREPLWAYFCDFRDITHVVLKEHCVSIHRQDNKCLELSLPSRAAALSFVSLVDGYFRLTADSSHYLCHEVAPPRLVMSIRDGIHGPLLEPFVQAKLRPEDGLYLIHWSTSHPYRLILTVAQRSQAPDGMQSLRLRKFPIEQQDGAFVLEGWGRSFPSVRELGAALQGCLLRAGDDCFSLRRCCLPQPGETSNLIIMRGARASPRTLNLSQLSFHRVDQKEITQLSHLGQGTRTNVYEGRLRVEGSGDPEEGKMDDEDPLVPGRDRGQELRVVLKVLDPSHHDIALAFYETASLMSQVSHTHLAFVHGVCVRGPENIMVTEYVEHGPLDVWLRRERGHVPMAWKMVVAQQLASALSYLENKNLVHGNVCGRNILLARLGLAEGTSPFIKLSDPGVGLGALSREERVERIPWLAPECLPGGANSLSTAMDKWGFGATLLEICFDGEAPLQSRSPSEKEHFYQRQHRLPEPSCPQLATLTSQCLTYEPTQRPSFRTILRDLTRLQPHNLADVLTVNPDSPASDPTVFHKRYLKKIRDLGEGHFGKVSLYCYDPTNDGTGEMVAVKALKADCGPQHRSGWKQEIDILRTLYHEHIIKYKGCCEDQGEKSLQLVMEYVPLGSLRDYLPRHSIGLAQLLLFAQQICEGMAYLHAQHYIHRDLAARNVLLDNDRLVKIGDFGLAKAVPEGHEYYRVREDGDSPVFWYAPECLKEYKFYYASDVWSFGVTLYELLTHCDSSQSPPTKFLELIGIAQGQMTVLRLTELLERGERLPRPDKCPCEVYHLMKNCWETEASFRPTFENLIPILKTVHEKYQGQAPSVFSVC"}, "MASTL": {"target": "T1, MASTL (Homo sapiens, UniProt Q96GX5)", "T1 sequence (Q96GX5 1-879)": "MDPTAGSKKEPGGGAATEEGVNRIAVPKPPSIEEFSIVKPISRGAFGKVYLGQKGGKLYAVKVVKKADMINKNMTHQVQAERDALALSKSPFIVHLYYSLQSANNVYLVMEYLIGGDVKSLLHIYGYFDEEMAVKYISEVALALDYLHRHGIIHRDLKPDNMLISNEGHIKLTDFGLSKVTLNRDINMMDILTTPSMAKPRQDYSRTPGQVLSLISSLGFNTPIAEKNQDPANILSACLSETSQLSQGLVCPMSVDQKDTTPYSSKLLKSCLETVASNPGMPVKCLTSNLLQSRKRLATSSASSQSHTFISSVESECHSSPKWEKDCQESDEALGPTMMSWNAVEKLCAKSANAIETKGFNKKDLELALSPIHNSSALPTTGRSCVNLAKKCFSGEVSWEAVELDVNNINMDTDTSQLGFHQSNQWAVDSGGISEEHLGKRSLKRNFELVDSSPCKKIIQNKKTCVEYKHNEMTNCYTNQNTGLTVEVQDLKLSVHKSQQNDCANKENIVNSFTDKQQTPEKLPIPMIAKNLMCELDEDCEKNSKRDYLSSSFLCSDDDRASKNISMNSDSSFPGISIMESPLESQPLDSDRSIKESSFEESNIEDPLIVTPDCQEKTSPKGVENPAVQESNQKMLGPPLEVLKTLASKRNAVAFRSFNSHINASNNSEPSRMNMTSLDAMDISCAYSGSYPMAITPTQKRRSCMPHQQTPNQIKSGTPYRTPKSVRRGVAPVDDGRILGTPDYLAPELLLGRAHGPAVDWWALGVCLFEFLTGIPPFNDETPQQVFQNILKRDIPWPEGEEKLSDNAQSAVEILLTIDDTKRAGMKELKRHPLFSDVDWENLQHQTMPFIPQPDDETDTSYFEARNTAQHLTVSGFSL"}, "PRKX": {"target": "T2, PRKX (Homo sapiens, UniProt P51817)", "T2 sequence (P51817 1-358)": "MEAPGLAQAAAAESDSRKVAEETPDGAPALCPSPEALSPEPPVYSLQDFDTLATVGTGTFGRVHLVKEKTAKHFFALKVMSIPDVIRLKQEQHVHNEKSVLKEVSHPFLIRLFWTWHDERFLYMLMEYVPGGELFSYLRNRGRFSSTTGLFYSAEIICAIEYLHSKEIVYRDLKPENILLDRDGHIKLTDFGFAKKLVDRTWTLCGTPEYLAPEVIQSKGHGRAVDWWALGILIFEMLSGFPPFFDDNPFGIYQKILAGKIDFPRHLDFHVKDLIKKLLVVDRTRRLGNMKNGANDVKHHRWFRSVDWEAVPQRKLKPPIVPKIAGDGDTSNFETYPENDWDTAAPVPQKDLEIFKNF"}, "TNK1": {"target": "T3, TNK1 (Homo sapiens, UniProt Q13470)", "T3 sequence (Q13470 1-666)": "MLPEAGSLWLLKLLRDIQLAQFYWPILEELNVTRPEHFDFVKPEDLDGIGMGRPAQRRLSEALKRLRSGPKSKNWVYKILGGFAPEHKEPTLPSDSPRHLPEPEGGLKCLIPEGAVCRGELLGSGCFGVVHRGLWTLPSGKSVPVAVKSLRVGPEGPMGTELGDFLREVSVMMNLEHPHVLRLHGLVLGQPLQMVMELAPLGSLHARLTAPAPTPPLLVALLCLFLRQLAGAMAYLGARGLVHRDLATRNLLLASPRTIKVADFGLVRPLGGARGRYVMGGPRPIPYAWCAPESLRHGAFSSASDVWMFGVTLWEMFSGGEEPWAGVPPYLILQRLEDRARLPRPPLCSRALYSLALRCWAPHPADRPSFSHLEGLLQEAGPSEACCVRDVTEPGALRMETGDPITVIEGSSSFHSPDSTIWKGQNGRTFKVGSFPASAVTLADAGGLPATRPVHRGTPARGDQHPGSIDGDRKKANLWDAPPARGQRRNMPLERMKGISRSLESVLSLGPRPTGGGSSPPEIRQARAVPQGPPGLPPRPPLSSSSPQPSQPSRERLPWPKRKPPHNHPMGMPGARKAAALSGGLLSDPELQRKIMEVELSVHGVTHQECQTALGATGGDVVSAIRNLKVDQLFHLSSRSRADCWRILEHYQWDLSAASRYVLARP"}, "PIP5K3": {"target": "PIP5K3 (Homo sapiens, UniProt Q9Y2I7)", "sequence (Q9Y2I7 whole entry)": "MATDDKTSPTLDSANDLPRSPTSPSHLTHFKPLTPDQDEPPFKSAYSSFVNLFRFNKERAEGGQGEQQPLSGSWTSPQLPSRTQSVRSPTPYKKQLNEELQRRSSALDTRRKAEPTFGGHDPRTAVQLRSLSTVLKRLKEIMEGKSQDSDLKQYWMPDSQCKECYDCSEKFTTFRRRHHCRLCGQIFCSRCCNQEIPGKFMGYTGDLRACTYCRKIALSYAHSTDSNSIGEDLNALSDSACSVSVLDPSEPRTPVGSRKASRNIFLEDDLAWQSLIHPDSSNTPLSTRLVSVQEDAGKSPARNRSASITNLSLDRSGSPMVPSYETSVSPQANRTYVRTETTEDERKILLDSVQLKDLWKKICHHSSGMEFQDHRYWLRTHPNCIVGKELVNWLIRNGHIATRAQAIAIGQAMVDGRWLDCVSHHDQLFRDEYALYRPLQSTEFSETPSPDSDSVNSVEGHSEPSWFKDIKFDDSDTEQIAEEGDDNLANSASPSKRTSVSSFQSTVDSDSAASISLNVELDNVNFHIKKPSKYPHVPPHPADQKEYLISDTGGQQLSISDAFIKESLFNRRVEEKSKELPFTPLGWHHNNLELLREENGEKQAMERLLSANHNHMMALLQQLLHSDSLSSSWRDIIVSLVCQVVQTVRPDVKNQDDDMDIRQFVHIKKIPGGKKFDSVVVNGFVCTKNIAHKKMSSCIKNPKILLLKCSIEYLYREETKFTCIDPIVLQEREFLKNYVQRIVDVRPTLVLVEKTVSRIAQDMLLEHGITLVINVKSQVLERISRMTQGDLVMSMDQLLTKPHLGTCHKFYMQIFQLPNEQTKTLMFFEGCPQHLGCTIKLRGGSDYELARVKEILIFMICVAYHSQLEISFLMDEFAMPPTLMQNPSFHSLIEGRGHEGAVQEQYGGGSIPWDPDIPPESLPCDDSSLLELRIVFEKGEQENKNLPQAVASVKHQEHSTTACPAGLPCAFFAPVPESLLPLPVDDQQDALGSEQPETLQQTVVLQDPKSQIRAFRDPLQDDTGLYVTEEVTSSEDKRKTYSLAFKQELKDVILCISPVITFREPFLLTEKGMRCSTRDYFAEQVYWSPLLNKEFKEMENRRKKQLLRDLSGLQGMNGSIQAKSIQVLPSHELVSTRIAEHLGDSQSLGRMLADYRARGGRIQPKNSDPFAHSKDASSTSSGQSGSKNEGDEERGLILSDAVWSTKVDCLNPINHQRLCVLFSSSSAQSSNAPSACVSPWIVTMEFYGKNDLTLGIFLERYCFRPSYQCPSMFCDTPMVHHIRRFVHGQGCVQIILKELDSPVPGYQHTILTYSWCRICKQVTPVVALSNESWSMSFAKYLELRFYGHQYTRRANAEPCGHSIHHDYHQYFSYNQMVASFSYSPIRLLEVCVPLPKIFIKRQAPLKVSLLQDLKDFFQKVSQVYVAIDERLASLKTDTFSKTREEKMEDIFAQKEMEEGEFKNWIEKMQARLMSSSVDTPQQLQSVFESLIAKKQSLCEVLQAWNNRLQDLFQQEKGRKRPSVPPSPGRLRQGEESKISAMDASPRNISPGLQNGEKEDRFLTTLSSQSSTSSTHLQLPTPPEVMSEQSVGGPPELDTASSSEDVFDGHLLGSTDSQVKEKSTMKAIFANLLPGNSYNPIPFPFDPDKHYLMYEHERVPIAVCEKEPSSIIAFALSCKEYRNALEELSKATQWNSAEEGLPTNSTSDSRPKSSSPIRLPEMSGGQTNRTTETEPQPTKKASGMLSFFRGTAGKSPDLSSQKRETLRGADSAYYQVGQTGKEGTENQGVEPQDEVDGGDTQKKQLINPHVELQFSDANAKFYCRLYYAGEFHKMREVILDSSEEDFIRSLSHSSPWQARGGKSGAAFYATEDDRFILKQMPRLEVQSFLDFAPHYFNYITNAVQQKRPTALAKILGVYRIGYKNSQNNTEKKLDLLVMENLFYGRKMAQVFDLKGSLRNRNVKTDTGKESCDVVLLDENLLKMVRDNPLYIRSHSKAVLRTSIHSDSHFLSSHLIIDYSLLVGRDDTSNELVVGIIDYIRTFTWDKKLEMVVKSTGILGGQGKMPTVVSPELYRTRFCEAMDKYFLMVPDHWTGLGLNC"}, "MAP2K2": {"target": "MAP2K2 (Homo sapiens, UniProt P36507)", "sequence (P36507 whole entry)": "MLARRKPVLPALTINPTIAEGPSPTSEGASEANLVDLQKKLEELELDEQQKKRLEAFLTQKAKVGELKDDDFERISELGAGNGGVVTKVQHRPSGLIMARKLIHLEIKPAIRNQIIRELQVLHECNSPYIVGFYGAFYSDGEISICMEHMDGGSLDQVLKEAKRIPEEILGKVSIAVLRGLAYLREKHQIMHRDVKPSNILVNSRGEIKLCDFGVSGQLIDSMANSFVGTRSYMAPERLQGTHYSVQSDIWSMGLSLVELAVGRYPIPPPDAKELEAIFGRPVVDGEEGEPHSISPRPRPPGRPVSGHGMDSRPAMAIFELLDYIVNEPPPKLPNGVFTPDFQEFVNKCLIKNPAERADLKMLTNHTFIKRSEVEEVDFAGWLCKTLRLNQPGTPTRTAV"}}, "note": "Where “and” joins values, the source holds several entries; their conditions need not be identical. Equal values may be shown once.", "data": [{"molecule": "CN(C)CC(O)COc1ccc(Nc2ncc([N+](=O)[O-])c(Nc3ccccc3O)n2)cc1.O=C(O)C(F)(F)F", "note": "(stereo not drawn) [TCMDC-141399]", "values": [{"measurement": "IC50", "setting": "TYK2", "value": 1900, "unit": "nM"}, {"measurement": "IC50", "setting": "MASTL", "value": "> 20000", "unit": "nM"}, {"measurement": "IC50", "setting": "PRKX", "value": "> 20000", "unit": "nM"}, {"measurement": "IC50", "setting": "TNK1", "value": "4200 nM and 1700 nM"}, {"measurement": "IC50", "setting": "PIP5K3", "value": "7500 nM and 5300 nM"}, {"measurement": "IC50", "setting": "MAP2K2", "value": "> 20000", "unit": "nM"}]}, {"molecule": "Cl.NCC1(c2nc(-c3ccc(Cl)c(O)c3)c(-c3ccncc3)[nH]2)CCCCC1", "note": "[TCMDC-141154]", "values": [{"measurement": "IC50", "setting": "TYK2", "value": "> 20000", "unit": "nM"}, {"measurement": "IC50", "setting": "MASTL", "value": "> 20000", "unit": "nM"}, {"measurement": "IC50", "setting": "PRKX", "value": "> 20000", "unit": "nM"}, {"measurement": "IC50", "setting": "TNK1", "value": "> 20000", "unit": "nM"}, {"measurement": "IC50", "setting": "PIP5K3", "value": 1000, "unit": "nM"}, {"measurement": "IC50", "setting": "MAP2K2", "value": "9000 nM and > 20000 nM"}]}, {"molecule": "CN1CCN(c2ccc(Nc3ncc(C#N)c(Nc4ccccc4C(N)=O)n3)cc2)CC1.Cl", "note": "[TCMDC-134116]", "values": [{"measurement": "IC50", "setting": "TYK2", "value": "100 nM and 92 nM"}, {"measurement": "IC50", "setting": "MASTL", "value": "280 nM and 610 nM"}, {"measurement": "IC50", "setting": "PRKX", "value": 1300, "unit": "nM"}, {"measurement": "IC50", "setting": "TNK1", "value": "≤ 32", "unit": "nM"}, {"measurement": "IC50", "setting": "PIP5K3", "value": "1300 nM and 1500 nM"}, {"measurement": "IC50", "setting": "MAP2K2", "value": "830 nM and 980 nM"}]}]}
